Measured values reported in the OligoGym collection.
After the bases stand the sugars from the 5' end (letter, count) and the backbone: PS all phosphorothioate, else s phosphorothioate and o phosphodiester by linkage. Methylation of C is not given here. e = 2'-O-(2-methoxyethyl) (MOE); k = constrained ethyl (cEt); d = 2'-deoxy (DNA); m = 2'-O-methyl

Biological target: HSD17B13
Conditions: ASO, HepaRG

## TGTAATTGGCTCTTGA (sugars k3 d10 k3, PS)
1 µM
  target mRNA inhibition: 0%

## TTAATGCCACCCTACC (sugars k3 d9 k3 e1, PS)
1 µM
  target mRNA inhibition: 20%

## GGATTAATCATGGGAC (sugars k3 d10 k3, PS)
1 µM
  target mRNA inhibition: 44%

## TATAACTGGAAGGAGG (sugars k3 d10 k3, PS)
1 µM
  target mRNA inhibition: 44%

## ACATCCAAGTAATTAC (sugars k3 d10 k3, PS)
1 µM
  target mRNA inhibition: 56%

## TAATTAATCTTGTTCG (sugars k3 d10 k3, PS)
1 µM
  target mRNA inhibition: 63%

## TCCACACCGCGCTTAT (sugars k3 d10 k3, PS)
1 µM
  target mRNA inhibition: 32%

## TTATGTGATTGAGTTC (sugars k3 d10 k3, PS)
1 µM
  target mRNA inhibition: 34%

## TGCCAAACCAATGTTT (sugars k3 d1 m1 d8 k3, PS)
1 µM
  target mRNA inhibition: 35%

## GTATGTTTATGTAAGC (sugars k3 d9 k3 e1, PS)
1 µM
  target mRNA inhibition: 71%

## TGGGAAATTGTTGCTG (sugars k3 d10 k3, PS)
1 µM
  target mRNA inhibition: 38%

## AAGATTAGTCTTGATG (sugars k3 d10 k3, PS)
1 µM
  target mRNA inhibition: 25%

## TATTGGTAAGTATTCC (sugars k3 d9 k3 e1, PS)
1 µM
  target mRNA inhibition: 48%

## ATACGCATGCGCAGTG (sugars k3 d10 k3, PS)
1 µM
  target mRNA inhibition: 38%

## CGATTGTTACATCACC (sugars k3 d10 k3, PS)
1 µM
  target mRNA inhibition: 47%

## CCTGCTGAAACTTGAT (sugars k3 d10 k3, PS)
1 µM
  target mRNA inhibition: 19%

## TTACCCCTGGCTTTTC (sugars k3 d10 k3, PS)
1 µM
  target mRNA inhibition: 26%

## GTAAGTATTCCATCTA (sugars k3 d9 k3 e1, PS)
1 µM
  target mRNA inhibition: 39%

## AGATAAAGCTGCCTGC (sugars k3 d1 m1 d8 k3, PS)
1 µM
  target mRNA inhibition: 35%

## TAGTATAGTTATCTTC (sugars k3 d9 k3 e1, PS)
1 µM
  target mRNA inhibition: 28%

## TCTGGGACCAAGGATA (sugars kkdddddddddkekek, PS)
1 µM
  target mRNA inhibition: 56%

## AAATTGGTTTCGAATC (sugars k3 d10 k3, PS)
1 µM
  target mRNA inhibition: 32%

## ATAATACATTAGCAAG (sugars k3 d10 k3, PS)
1 µM
  target mRNA inhibition: 7%

## ACTAATCTCAGTACTC (sugars k3 d10 k3, PS)
1 µM
  target mRNA inhibition: 45%

## TTCTTATGTAATAGCC (sugars kkdddddddddkekek, PS)
0.02 µM
  target mRNA inhibition: 8%
0.078 µM
  target mRNA inhibition: 28%
0.313 µM
  target mRNA inhibition: 52%
1 µM
  target mRNA inhibition: 78%
1.25 µM
  target mRNA inhibition: 79%
5 µM
  target mRNA inhibition: 82%

## CAGCATTGTAATCTTG (sugars k3 d10 k3, PS)
1 µM
  target mRNA inhibition: 43%

## CACATATGTGAAGAGC (sugars k3 d9 k3 e1, PS)
0.02 µM
  target mRNA inhibition: 6%
0.078 µM
  target mRNA inhibition: 9%
0.313 µM
  target mRNA inhibition: 39%
1 µM
  target mRNA inhibition: 74%
1.25 µM
  target mRNA inhibition: 57%
5 µM
  target mRNA inhibition: 78%

## TTGCAATGAGATTACC (sugars k3 d10 k3, PS)
1 µM
  target mRNA inhibition: 29%

## ACATTAGCAAGCTAAG (sugars k3 d10 k3, PS)
1 µM
  target mRNA inhibition: 52%

## GGATCTAGAACACTTG (sugars k3 d10 k3, PS)
1 µM
  target mRNA inhibition: 32%

## TTCCATCTATCAGACT (sugars k3 d1 m1 d8 k3, PS)
1 µM
  target mRNA inhibition: 38%

## GCATAAGAGCCAAACT (sugars k3 d10 k3, PS)
1 µM
  target mRNA inhibition: 67%

## GTCTTGATGTAGTGGG (sugars k3 d10 k3, PS)
0.02 µM
  target mRNA inhibition: 17%
0.078 µM
  target mRNA inhibition: 22%
0.313 µM
  target mRNA inhibition: 41%
1 µM
  target mRNA inhibition: 67%
1.25 µM
  target mRNA inhibition: 72%
5 µM
  target mRNA inhibition: 87%

## CTGCTGCTAGTGCCAA (sugars k3 d9 k3 e1, PS)
1 µM
  target mRNA inhibition: 66%

## CTCTUAGCTGTGCACT (sugars k3 d1 m1 d8 k3, PS)
0.02 µM
  target mRNA inhibition: 16%
0.078 µM
  target mRNA inhibition: 14%
0.313 µM
  target mRNA inhibition: 33%
1 µM
  target mRNA inhibition: 67%
1.25 µM
  target mRNA inhibition: 52%
5 µM
  target mRNA inhibition: 58%

## TAATCATGGGACAGGA (sugars k3 d10 k3, PS)
1 µM
  target mRNA inhibition: 15%

## CGTCCTAGGAAACAAA (sugars k3 d10 k3, PS)
1 µM
  target mRNA inhibition: 45%

## GTTAGAATAGTCTTCA (sugars k3 d9 k3 e1, PS)
1 µM
  target mRNA inhibition: 71%

## AATAGCCAGTACAGTT (sugars k3 d1 m1 d8 k3, PS)
1 µM
  target mRNA inhibition: 66%

## TTTCAGATCCCGTTCT (sugars k3 d10 k3, PS)
1 µM
  target mRNA inhibition: 45%

## GTAGTGTAAGCTGAGA (sugars k3 d10 k3, PS)
1 µM
  target mRNA inhibition: 81%

## TAGAGAGCATAAGTTA (sugars k3 d10 k3, PS)
1 µM
  target mRNA inhibition: 59%

## AATTGTCTAAACATCT (sugars k3 d10 k3, PS)
1 µM
  target mRNA inhibition: 62%

## ACAGTTTAGATTGCAT (sugars k3 d10 k3, PS)
0.02 µM
  target mRNA inhibition: 12%
0.078 µM
  target mRNA inhibition: 0%
0.313 µM
  target mRNA inhibition: 73%
1 µM
  target mRNA inhibition: 84%
1.25 µM
  target mRNA inhibition: 73%
5 µM
  target mRNA inhibition: 97%
